Data as given in ChEMBL document CHEMBL1909046, “DrugMatrix in vitro pharmacology data”.

How the values were obtained:
[1] = molecular target: T1, Polyunsaturated fatty acid lipoxygenase ALOX15 (Oryctolagus cuniculus, UniProt P12530); assay: biochemical; format: tissue-based, Reticulocytes;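 note: inhibition of 15-lipoxygenase enzyme activity measured with linoleic acid as the substrate; in other assays of this panel Not Active means under 50% inhibition at 10 µM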
T1 sequence (P12530 whole entry): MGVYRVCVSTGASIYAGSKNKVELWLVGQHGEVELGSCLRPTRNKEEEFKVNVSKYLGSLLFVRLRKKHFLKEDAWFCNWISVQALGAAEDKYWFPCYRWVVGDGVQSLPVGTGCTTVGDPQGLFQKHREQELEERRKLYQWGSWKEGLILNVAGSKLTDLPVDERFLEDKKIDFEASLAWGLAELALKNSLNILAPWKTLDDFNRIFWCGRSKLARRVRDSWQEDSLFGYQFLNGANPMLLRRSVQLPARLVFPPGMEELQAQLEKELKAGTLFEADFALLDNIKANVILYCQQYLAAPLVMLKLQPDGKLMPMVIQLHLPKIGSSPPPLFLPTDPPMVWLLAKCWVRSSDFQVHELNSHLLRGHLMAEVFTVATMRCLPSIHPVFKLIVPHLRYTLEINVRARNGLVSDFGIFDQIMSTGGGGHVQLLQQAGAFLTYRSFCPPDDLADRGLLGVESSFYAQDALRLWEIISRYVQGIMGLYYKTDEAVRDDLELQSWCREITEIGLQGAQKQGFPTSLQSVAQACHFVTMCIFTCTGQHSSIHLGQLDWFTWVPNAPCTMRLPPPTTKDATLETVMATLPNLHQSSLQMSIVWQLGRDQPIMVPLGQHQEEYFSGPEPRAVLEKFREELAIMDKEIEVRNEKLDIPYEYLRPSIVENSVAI

[2] = DRUGMATRIX: Tumor Necrosis Factor (TNF), Non-Selective radioligand binding (ligand: [125I] TNF-alpha); format: cell membranes, Membrane; settings: u-937; Not Active = under 50% inhibition at 10 µM
[3] = molecular target: Voltage-gated inwardly rectifying potassium channel KCNH2 (Homo sapiens, UniProt Q12809); settings: hek293; note: in other assays of this panel Not Active means under 50% inhibition at 10 µM
Neutrophil elastase = molecular target: T2, Neutrophil elastase (Homo sapiens, UniProt P08246); format: tissue-based;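 note: inhibition of neutrophil elastase enzyme activity, measured with a p-nitroanilide-linked peptide substrate; in other assays of this panel Not Active means under 50% inhibition at 10 µM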
T2 sequence (P08246 whole entry): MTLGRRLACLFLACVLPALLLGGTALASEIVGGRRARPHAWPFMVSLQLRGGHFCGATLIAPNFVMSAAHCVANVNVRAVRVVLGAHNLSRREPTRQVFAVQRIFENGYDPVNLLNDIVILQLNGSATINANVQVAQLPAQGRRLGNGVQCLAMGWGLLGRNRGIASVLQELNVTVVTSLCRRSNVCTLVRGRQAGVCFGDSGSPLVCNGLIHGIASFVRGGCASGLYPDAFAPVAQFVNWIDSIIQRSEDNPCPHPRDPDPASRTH

[4] = molecular target: Prostaglandin G/H synthase 1 (Homo sapiens, UniProt P23219); assay: biochemical; format: tissue-based, Platelet; settings: platelet;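 note: inhibition of COX-1 enzyme activity, with arachidonic acid supplied as substrate; in other assays of this panel Not Active means under 50% inhibition at 10 µM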
[5] = DRUGMATRIX: Serotonin (5-Hydroxytryptamine) 5-HT3 radioligand binding (ligand: [3H] GR-65630); format: cell membranes, Membrane; settings: hek293; Not Active = under 50% inhibition at 10 µM
Vasopressin V1a receptor = Vasopressin V1a receptor (Homo sapiens, UniProt P37288); format: cell membranes, Membrane; settings: hek293; note: in other assays of this panel Not Active means under 50% inhibition at 10 µM
[6] = molecular target: 5-hydroxytryptamine receptor 1B (Rattus norvegicus, UniProt P28564); format: cell membranes, Wistar, Cerebral cortex, Membrane; note: in other assays of this panel Not Active means under 50% inhibition at 10 µM
5-hydroxytryptamine receptor 1B, sequence (P28564 whole entry): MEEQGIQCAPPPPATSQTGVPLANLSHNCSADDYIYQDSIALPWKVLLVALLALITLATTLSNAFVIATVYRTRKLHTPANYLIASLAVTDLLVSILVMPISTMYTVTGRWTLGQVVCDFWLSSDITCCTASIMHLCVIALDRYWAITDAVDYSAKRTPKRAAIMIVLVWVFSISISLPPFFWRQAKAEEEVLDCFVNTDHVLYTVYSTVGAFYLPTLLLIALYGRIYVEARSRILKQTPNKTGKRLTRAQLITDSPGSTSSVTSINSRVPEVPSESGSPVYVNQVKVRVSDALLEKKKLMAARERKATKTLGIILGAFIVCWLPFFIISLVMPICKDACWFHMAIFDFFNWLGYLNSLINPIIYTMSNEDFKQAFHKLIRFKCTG

Voltage-gated inwardly rectifying potassium channel KCNH2, sequence (Q12809 whole entry): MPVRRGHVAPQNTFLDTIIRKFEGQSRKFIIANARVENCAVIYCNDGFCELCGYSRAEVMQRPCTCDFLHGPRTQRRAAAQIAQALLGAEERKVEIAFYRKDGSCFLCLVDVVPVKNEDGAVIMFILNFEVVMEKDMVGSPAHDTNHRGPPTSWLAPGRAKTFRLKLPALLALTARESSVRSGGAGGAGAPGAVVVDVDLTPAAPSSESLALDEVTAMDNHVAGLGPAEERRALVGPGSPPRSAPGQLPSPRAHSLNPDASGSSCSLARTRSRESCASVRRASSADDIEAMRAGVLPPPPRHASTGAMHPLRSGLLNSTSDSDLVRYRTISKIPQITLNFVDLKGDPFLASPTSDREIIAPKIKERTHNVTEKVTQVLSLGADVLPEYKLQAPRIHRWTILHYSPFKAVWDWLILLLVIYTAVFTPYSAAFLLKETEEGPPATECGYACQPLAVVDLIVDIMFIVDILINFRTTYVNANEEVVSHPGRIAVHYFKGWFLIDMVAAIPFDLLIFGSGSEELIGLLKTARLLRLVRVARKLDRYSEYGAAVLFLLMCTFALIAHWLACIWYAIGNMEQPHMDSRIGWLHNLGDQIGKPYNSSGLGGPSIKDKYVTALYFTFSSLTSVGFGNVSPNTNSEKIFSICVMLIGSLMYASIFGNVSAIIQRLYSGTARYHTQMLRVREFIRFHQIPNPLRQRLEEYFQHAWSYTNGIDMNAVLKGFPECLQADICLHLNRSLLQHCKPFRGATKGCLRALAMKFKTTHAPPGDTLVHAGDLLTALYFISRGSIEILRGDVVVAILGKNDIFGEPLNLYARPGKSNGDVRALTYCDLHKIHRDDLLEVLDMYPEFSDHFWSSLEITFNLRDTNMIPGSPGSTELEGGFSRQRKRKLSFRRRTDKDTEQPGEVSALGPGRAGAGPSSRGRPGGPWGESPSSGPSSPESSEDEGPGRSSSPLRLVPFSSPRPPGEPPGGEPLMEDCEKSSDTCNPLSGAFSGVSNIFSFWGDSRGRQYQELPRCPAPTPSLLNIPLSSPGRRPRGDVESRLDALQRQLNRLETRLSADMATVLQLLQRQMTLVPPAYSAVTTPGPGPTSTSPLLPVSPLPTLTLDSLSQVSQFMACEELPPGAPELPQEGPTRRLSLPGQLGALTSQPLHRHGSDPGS
Vasopressin V1a receptor, sequence (P37288 whole entry): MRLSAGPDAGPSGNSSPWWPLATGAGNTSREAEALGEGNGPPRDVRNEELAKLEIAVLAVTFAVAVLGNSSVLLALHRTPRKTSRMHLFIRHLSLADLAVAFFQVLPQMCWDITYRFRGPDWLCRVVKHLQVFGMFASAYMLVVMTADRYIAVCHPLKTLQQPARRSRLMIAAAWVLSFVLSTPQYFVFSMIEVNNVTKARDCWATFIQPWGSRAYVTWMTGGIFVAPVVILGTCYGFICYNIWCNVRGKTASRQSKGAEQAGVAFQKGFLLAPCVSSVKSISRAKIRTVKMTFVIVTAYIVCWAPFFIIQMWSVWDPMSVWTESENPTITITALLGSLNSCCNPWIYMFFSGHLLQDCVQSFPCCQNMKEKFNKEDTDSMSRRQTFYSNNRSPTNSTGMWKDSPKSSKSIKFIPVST
Prostaglandin G/H synthase 1, sequence (P23219 whole entry): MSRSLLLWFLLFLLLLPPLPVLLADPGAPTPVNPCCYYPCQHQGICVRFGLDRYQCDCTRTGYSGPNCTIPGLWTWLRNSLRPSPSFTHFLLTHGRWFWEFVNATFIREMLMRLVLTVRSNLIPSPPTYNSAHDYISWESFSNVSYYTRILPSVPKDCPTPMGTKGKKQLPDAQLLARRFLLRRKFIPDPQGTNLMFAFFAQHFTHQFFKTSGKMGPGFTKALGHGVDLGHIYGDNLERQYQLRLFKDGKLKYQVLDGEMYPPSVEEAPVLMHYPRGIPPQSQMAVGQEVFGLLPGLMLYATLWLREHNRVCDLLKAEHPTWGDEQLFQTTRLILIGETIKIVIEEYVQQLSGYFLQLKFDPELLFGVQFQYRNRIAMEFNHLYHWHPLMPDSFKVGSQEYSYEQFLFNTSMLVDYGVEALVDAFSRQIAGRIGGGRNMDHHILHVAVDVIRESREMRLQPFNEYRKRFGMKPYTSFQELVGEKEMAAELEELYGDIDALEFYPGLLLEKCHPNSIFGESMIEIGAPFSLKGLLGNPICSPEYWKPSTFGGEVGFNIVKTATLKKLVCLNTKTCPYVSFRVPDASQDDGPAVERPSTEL

SMILES | IC50 ([1]; reticulocytes) | IC50 [2] | Ki [2] | IC50 [3] | Ki [3] | IC50 (Neutrophil elastase) | IC50 [4] | IC50 [5] | Ki [5] | IC50 (Vasopressin V1a receptor) | IC50 [6] | IC50 ([6]; read-out: IC50) | Ki ([6]; read-out: Ki) | IC50 ([1]; read-out: IC50)
CC(=O)Oc1ccc(C(c2ccc(OC(C)=O)cc2)c2ccccn2)cc1 [BISACODYL] | Not Active | Not Active | Not Active | Not Active | Not Active | Not Active | Not Active | Not Active | Not Active | Not Active | Not Active |  |  | 
Cc1cc2c(OCC(CNC(C)(C)C)OC(=O)c3ccccc3)cccc2[nH]1 (stereo unspecified) [BOPINDOLOL] | Not Active | Not Active | Not Active | Not Active | Not Active | Not Active | Not Active | Not Active | Not Active | Not Active | Not Active |  |  | 
Brc1c(NC2=NCCN2)ccc2nccnc12 [BRIMONIDINE] | Not Active | Not Active | Not Active | Not Active | Not Active | Not Active | Not Active | Not Active | Not Active | Not Active | Not Active |  |  | 
CN(C)[C@@H]1C(O)=C(C(N)=O)C(=O)[C@@]2(O)C(O)=C3C(=O)c4c(O)ccc(Cl)c4[C@@](C)(O)[C@H]3C[C@@H]12 [CHLORTETRACYCLINE] | Not Active | Not Active | Not Active | Not Active | Not Active | Not Active | Not Active | Not Active | Not Active | Not Active | Not Active |  |  | 
CN/C(=N\CCSCc1nc[nH]c1C)NC#N [CIMETIDINE] | Not Active | Not Active | Not Active | Not Active | Not Active | Not Active | Not Active | Not Active | Not Active | Not Active | Not Active |  |  | 
CCC(=O)O[C@]1(C(=O)CCl)[C@@H](C)C[C@H]2[C@@H]3CCC4=CC(=O)C=C[C@]4(C)[C@@]3(F)[C@@H](O)C[C@@]21C [CLOBETASOL PROPIONATE] | Not Active | Not Active | Not Active | Not Active | Not Active | Not Active | Not Active | Not Active | Not Active | Not Active | Not Active |  |  | 
O=C1CN=C(c2ccccc2Cl)c2cc([N+](=O)[O-])ccc2N1 [CLONAZEPAM] | Not Active | Not Active | Not Active | Not Active | Not Active | Not Active | Not Active | Not Active | Not Active | Not Active | Not Active |  |  | 
Nc1ccn([C@@H]2O[C@H](CO)[C@@H](O)[C@@H]2O)c(=O)n1 [CYTARABINE] | Not Active | Not Active | Not Active | Not Active | Not Active | Not Active | Not Active | Not Active | Not Active | Not Active | Not Active |  |  | 
C[C@@H]1C[C@H]2[C@@H]3CCC4=CC(=O)C=C[C@]4(C)[C@@]3(F)[C@@H](O)C[C@]2(C)[C@H]1C(=O)CO [DESOXIMETASONE] | Not Active | Not Active | Not Active | Not Active | Not Active | Not Active | Not Active | Not Active | Not Active | Not Active | Not Active |  |  | 
C[C@@H]1C[C@H]2[C@@H]3CCC4=CC(=O)C=C[C@]4(C)[C@@]3(F)[C@@H](O)C[C@]2(C)[C@@]1(O)C(=O)CO [DEXAMETHASONE] | Not Active | Not Active | Not Active | Not Active | Not Active | Not Active | Not Active | Not Active | Not Active | Not Active | Not Active |  |  | 
CN(C)CC[C@@H](c1ccc(Cl)cc1)c1ccccn1 [DEXCHLORPHENIRAMINE] | Not Active | Not Active | Not Active | Not Active | Not Active | Not Active | Not Active | Not Active | Not Active | Not Active | Not Active |  |  | 
C[C@@H]1CC[C@@]2(OC1)O[C@H]1[C@@H](O)[C@H]3[C@@H]4CC[C@H]5C[C@@H](O[C@@H]6O[C@H](CO)[C@H](O[C@@H]7O[C@H](CO)C(O)[C@H](O[C@@H]8OC[C@@H](O)[C@H](O)[C@H]8O)[C@H]7O[C@@H]7O[C@H](CO)[C@H](O)[C@H](O[C@@H]8O[C@H](CO)[C@@H](O)[C@H](O)[C@H]8O)[C@H]7O)[C@H](O)[C@H]6O)[C@H](O)C[C@]5(C)[C@H]4CC[C@]3(C)[C@H]1[C@@H]2C (stereo partly specified) [DIGITONIN] | Not Active | Not Active | Not Active | Not Active | Not Active | Not Active | Not Active | Not Active | Not Active | Not Active | Not Active |  |  | 
OC(CCCN1CCCCC1)(c1ccccc1)c1ccccc1 [DIPHENIDOL] | Not Active | Not Active | Not Active | Not Active | Not Active | Not Active | Not Active | Not Active | Not Active | Not Active | Not Active |  |  | 
C[C@H]1O[C@@H](n2cc(F)c(=O)[nH]c2=O)[C@H](O)[C@@H]1O [DOXIFLURIDINE] | Not Active | Not Active | Not Active | Not Active | Not Active | Not Active | Not Active | Not Active | Not Active | Not Active | Not Active |  |  | 
Cn1c(=O)c2c(ncn2CC(O)CO)n(C)c1=O (stereo unspecified) [DYPHYLLINE] | Not Active | Not Active | Not Active | Not Active | Not Active | Not Active | Not Active | Not Active | Not Active | Not Active | Not Active |  |  | 
C[C@@H](CO)NC(=O)[C@@H]1C=C2c3cccc4[nH]cc(c34)C[C@H]2N(C)C1 [ERGONOVINE] | Not Active | Not Active | Not Active | Not Active | Not Active | Not Active | Not Active | Not Active | Not Active | Not Active |  | 2.85 nM | 1.29 nM | 
COC(=O)CCc1ccc(OCC(O)CNC(C)C)cc1 (stereo unspecified) [ESMOLOL] | Not Active | Not Active | Not Active | Not Active | Not Active | Not Active | Not Active | Not Active | Not Active | Not Active | Not Active |  |  | 
CCC1(C)CC(=O)NC1=O (stereo unspecified) [ETHOSUXIMIDE] | Not Active | Not Active | Not Active | Not Active | Not Active | Not Active | Not Active | Not Active | Not Active | Not Active | Not Active |  |  | 
C#C[C@]1(OC(C)=O)CC[C@H]2[C@@H]3CCC4=C[C@@H](OC(C)=O)CC[C@@H]4[C@H]3CC[C@@]21C [ETHYNODIOL DIACETATE] | Not Active | Not Active | Not Active | Not Active | Not Active | Not Active | Not Active | Not Active | Not Active | Not Active | Not Active |  |  | 
COc1cc([C@@H]2c3cc4c(cc3[C@@H](O[C@@H]3O[C@@H]5CO[C@@H](C)O[C@H]5[C@H](O)[C@H]3O)[C@H]3COC(=O)[C@H]23)OCO4)cc(OC)c1O [ETOPOSIDE] |  | Not Active | Not Active | Not Active | Not Active | Not Active | Not Active | Not Active | Not Active | Not Active | Not Active |  |  | 3190 nM
